Key:
HeLa = assay: Antitumor activity against human HeLa cells xenografted in mouse model assessed as tumor growth inhibition at 20 mg/kg treated for 10 days relative to control; format: functional; design: scale not given: the % may be the effect or the level left; settings: time 10 day
CAL-27 = assay: Inhibition of cell proliferation in human CAL-27 cells at 1uM incubated for 72 hrs by MTT assay relative to control; format: functional

| SMILES | Activity (HeLa) | inhibition at 1 µM (CAL-27) |
| --- | --- | --- |
| CCOCCNC(=O)/C(C)=C\C[C@@]12OC(C)(C)[C@@H]3C[C@@H](C=C4C(=O)c5c(O)c(C/C=C(\C)CCC=C(C)C)c(O)c(CC=C(C)C)c5O[C@]431)C2=O | 70% |  |
| NCC(=O)CCC(=O)O [AMINOLEVULINIC ACID] |  | 75.4% |

— ChEMBL document CHEMBL5608167, “Nanomaterials-based advanced systems for photothermal / photodynamic therapy of oral cancer” (2024)
